Experiments:
[1] = molecular target: T1, epitope-tagged (histidine6) recombinant MKP-1 (Homo sapiens, UniProt P28562); assay: MKP-1 phosphatase inhibition; type: biochemical
T1 sequence (P28562 1-367): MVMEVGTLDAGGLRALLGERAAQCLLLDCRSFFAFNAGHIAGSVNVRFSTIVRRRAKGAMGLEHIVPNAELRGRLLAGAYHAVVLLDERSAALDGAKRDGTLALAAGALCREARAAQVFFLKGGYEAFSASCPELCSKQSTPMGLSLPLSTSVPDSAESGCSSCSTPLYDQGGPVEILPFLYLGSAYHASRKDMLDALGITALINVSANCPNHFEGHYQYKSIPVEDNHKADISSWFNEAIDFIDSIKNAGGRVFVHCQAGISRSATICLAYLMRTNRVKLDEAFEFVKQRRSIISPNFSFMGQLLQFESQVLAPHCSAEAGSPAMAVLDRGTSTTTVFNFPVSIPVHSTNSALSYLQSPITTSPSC

[2] = molecular target: T2, epitope-tagged (histidine6) catalytic domain of human recombinant Cdc25B (Homo sapiens, UniProt P30305); assay: Cdc25B phosphatase inhibition, catalytic domain; type: biochemical; conditions: for Cdc25B activity in words: structure-activity discussion; for selectivity for Cdc25B as opposed to MKP-1 and MKP-3, in words: comparison of Cdc25B, MKP-1, MKP-3 assays
T2 sequence (P30305 275-539 isoform P30305-3): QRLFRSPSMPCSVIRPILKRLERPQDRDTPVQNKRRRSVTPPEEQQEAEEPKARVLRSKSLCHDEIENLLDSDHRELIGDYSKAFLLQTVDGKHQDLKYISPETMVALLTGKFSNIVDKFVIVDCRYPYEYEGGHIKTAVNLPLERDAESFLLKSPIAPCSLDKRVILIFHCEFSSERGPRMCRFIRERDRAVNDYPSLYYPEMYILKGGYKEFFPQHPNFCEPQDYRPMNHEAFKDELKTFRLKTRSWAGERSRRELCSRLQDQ

| SMILES | IC50 [1] [µM] | Cdc25B activity in words [2] | selectivity for Cdc25B as opposed to MKP-1 and MKP-3, in words [2] |
| --- | --- | --- | --- |
| CC1=C(NCCO)C(=O)c2ccccc2C1=O [Compound 19] | > 50 | complete loss of activity | – |
| O=C1C=C(NCCO)C(=O)c2ccccc21 [Compound 18] | > 50 | complete loss of activity | – |
| O=C1C=CC(=O)C=C1 [Compound 10, 1,4-benzoquinone] | > 50 | complete loss of enzyme activity | – |
| CCOC1=CC(=O)C(=O)c2ccccc21 [Compound 20] | – | – | relatively non-selective |
| O=C1c2cc3c(cc2C(=O)C2OC12)CCCC3 (centres unmarked) [Compound 8] | > 50 | – | – |
| O=C1c2ccccc2C(=O)c2ccccc21 [Compound 12, 9,10-anthraquinone] | > 50 | – | – |
| O=C1C2=C(C(=O)c3c(O)cccc31)S(=O)(=O)CCN2 [Compound 17] | – | – | moderately selective for Cdc25B |
| O=C1C2=C(C(=O)c3ccccc31)S(=O)(=O)CCN2 [Compound 16] | – | – | moderately selective for Cdc25B |

Reference: publication PMC2860877 (Bioorganic & medicinal chemistry, 2008)
